In patent publication US20080206253A1, “Method For Preventing or Treating Pain in a Mammal” (priority 2005, published 2008):
“Also recorded” adds a separate entry of the source. Marks after values point to notes of the source that are not given here.

Columns and labels:
Format in all cases: in vivo, rat
p38α = experiment: Western blot of spinal p38α protein expression after IT antisense; conditions: for p38α protein expression, % Expression Compared to Missense: spinal cord at day six, MS=100%, mean ±SEM n=6; for spinal p38α protein expression compared to missense (MS)-treated animals (in words): five days of IT bolus injections, p38α AS 10-30 μg (30 μg: P<0.05), p38β AS 10-20 μg
From the text: (§1) It has previously been shown that inhibition of spinal p38 MAP kinase prevents both inflammation-evoked hyperalgesia and nerve injury-induced allodynia. Ji et al., Neuron 36: 57-68, 2002; Schafers et al., J Neurosci 23: 2517-2521, 2003; Svensson et al., Neuroreport 14: 1153-1157, 2003a.; Svensson et al., J Neurochem 86: 1534-1544, 2003b. It still remains to be determined whether only one or both of the p38 isoforms, that are present in the spinal cord, are involved in modulation of spinal nociceptive processing. Since there is no specific p38 isoform inhibitors available, rats were treated intrathecally with isoform specific antisense oligonucleotides (AS) in order to knock down p38α and p38β respectively. […] There were no differences between the AS-, MS- or vehicle-treated groups in terms of weight gain or motor function. The specificity of the effects of these two antisense oligonucleotides was also examined. Western blot membranes were stripped and re-incubated the with the other p38 isoform antibody. […] In Table 1, antisense was given IT once daily for 5 days and protein expression assayed in spinal chord at day six compared to protein level detected in missense treated animals (MS=100%). Each group represents mean ±SEM, n=6 per group. (*) represents P<0.05 as compared to the missense group.
(§2) Antisense oligonucleotides. Three oligonucleotides (a kind gift from ISIS Pharmaceuticals Inc.) with lengths of 20 nucleotides were employed in the study: ISIS 101757 (p38α AS) […], beginning at position 1081 in the rat p38α mRNA; ISIS 107211 (p38βAS) […], beginning at position 439 in the rat p38β mRNA; and ISIS141923 (an universe MS control) […]. These oligonucleotides were synthesized as 2′-methoxyethyl (MOE) phosphorothioate chimeric oligonucleotides in which the first and last five bases contained MOE modifications with a uniform phosphorothioate backbone. Butler et al., Diabetes 51: 1028-1034, 2002. The oligonucleotides were dissolved in artificial cerebrospinal fluid (ACSF) immediately prior to intrathecal administration. The ACSF contained (mM) 151.1 Na+, 2.6 K+, 0.9 Mg2+, 1.3 Ca 2+, 122.7 Cl−, 21.0 HCO3, 2.5 HPO4 and was bubbled with 95% O2/5% CO2 before use to adjust the final pH to 7.2. AS and MS (10-30 μg) was administrated in 10 μl ACSF followed by 10 μl saline daily for five days and behavioral experiments and spinal tissue collection performed on day six.
(§3) Western blot. Prior to sacrifice, rats were deeply anesthetized and after decapitation the spinal cords were ejected from the vertebral column by a saline-filled syringe. The lumbar part of the spinal cord was immediately homogenized in extraction buffer (50 mM Tris buffer, pH 8.0, containing 0.5% Triton X-100, 150 mM NaCl, 1 mM EDTA, phosphatase and protease inhibitors) by sonication. The tissue extracts were subjected to denaturing NuPAGE 4-12% Bis-Tris gel electrophoresis and then transferred to nitrocellulose membranes (Micronic Separation Inc. Westborough, Mass.). After blocking nonspecific binding sites with 5% low-fat milk in PBS containing 0.1% Tween 20 (PBS-T) for 1 hour in room temperature, the membranes were incubated with antibodies overnight at 4° C. After washing, the antibody-protein complexes were probed with appropriate secondary antibodies labeled with horseradish peroxidase for 1 hr at room temperature and detected with chemiluminescent reagents (SuperSignal, Pierce, Rockford, Ill.). […]

p38β = experiment: Western blot of spinal p38β protein expression after IT antisense; conditions: for p38β protein expression, % Expression Compared to Missense: spinal cord at day six, MS=100%, mean ±SEM n=6; for spinal p38β protein expression compared to missense (MS)-treated animals (in words): five days of IT bolus injections, p38β AS 10-20 μg (10 and 20 μg: P<0.05), p38α AS 10-30 μg
From the text: as §1, §2, §3

[1] = system: rats, IT SP (spinal NK-1 receptors); experiment: IT substance P-evoked thermal hyperalgesia (paw withdrawal latency, Hargreaves device); conditions: for IT SP-induced thermal hyperalgesia (paw withdrawal latency): IT p38α AS 30 μg or p38β AS 20 μg daily for five days, IT SP 30 nmol, compared with MS group; for Base line thermal thresholds: before IT SP, after five days of IT treatment
Method: Yaksh et al., Nature 286: 155-157, 1980; Yaksh, Trends Pharmacol Sci 20: 329-337, 1999. […] Malmberg and Yaksh, Science 257: 1276-1279, 1992; Svensson et al., J Neurochem 86: 1534-1544, 2003. […] To investigate the contribution of p38α and p38β to SP-evoked hyperalgesia and p38 phosphorylation, spinal delivery of p38α and p38β AS and MS was carried out. Thermal withdrawal latencies was assessed after IT injection of SP and lumbar spinal cords collected immediately to compare the degree of spinal p38 phosphorylation at the hypothesized time of peak phosphorylation. IT injection of SP into the MS group produced an expected reduction of thermal withdrawal latency in comparison with IT saline injection into to vehicle treated animals (FIG. 7C). […] In contrast, IT SP-induced thermal hyperalgesia was attenuated in rats which had received p38β AS (FIG. 7E). […] Stripping and reprobing the western blot membranes confirmed that p38α protein expression was knocked down in p38α AS treated group (FIG. 7D) as well as p38β in the p38β AS group (FIG. 7F).
Nociceptive models. To directly induce spinal sensitization, rats received intrathecal injections of sP (30 nmol) which activates spinal NK-1 receptors and produces thermal hyperalgesia. Hua et al., Neuroscience 89: 525-534, 1999a; Piercey et al., Science 214: 1361-1363, 1981; Yashpal and Henry, Can J Physiol Pharmacol 61: 303-307, 1983. Thermally evoked paw withdrawal responses were assessed using a Hargreaves type testing device. Dirig et al., J Neurosci Methods 76: 183-191, 1997. Briefly, rats were placed on a glass surface maintained at 30° C. The thermal nociceptive stimulus originates from a projection bulb below the glass surface, and the stimulus is delivered separately to one hind paw at a time. The animals were allowed to acclimatize on the glass surface and basal paw withdrawal latencies (PWL) were then assessed for left and right paws at time (T)=−40, =30 and −20 min and expressed as the mean of the six measurements. At T=−10 min the animals received intrathecal vehicle or drug and at T=0, sP was injected. Withdrawal latencies were then assessed at T=15, 30, 45 and 60 min. Paw withdrawal latency for each group was expressed as the mean at each time point.

[2] = IT antisense 20 μg once daily for 5 days
[3] = IT antisense 10 μg once daily for 5 days
[4] = IT antisense 30 μg once daily for 5 days

Row | Substance | p38α protein expression, % Expression Compared to Missense (p38α; [2]) | spinal p38α protein expression compared to missense (MS)-treated animals (in words) (p38α) | p38β protein expression, % Expression Compared to Missense (p38β; [3]) | p38β protein expression, % Expression Compared to Missense (p38β; [2]) | spinal p38β protein expression compared to missense (MS)-treated animals (in words) (p38β) | IT SP-induced thermal hyperalgesia (paw withdrawal latency) [1] | Base line thermal thresholds [1] | p38α protein expression, % Expression Compared to Missense (p38α; [3]) | p38α protein expression, % Expression Compared to Missense (p38α; [4]) | p38β protein expression, % Expression Compared to Missense (p38β; [4])
1 | p38β AS: 20-nucleotide 2′-MOE phosphorothioate chimeric antisense GTATGTCCTCCTCGCGTGGA, beginning at position 439 in the rat p38β mRNA (all phosphorothioate, sugars by position and methylation of C not given here; 2'-MOE chimeric (gapmer) antisense) | 205 ± 65* % | somewhat increased | 45 ± 9* % | 39 ± 12* % | significant down-regulation; also recorded: knocked down | attenuated; also recorded: blocked IT SP-evoked thermal hyperalgesia | 10.8 ± 0.5 s |  |  | 
2 | p38α AS: 20-nucleotide 2′-MOE phosphorothioate chimeric antisense AGGTGCTCAGGACTCCATTT, beginning at position 1081 in the rat p38α mRNA (all phosphorothioate, sugars by position and methylation of C not given here; 2'-MOE chimeric (gapmer) antisense) |  | significant down-regulation; also recorded: knocked down |  |  | neither p38α AS nor p38β AS produced a reduction of the protein expression of the other isoform | not affected | 11.49 ± 0.3 s | 59 ± 26% | 39 ± 8* % | 111 ± 15%
